# Data: patent publication US20220227769A1, “CRYSTALLINE FORM OF TELMAPITANT OR (5R,8S)-8-[[(1R)-1-[3,5-BIS(TRIFLUOROMETHYL)PHENYL]ETHOXY]METHYL]-8-PHENYL-1,3,7-TRIAZASPIRO[4.5]DECANE-2,4-DIONE” (Intervet Inc., priority 2019, published 2022)
# Key:
# [1] = test system: emesis induced by apomorphine IV and syrup of ipecac orally; conditions: dogs; centrally acting emetogens (apomorphine IV) and peripherally acting emetogens (syrup of ipecac orally); cited from earlier work
# [2] = Competitive slurry experiments of polymorphic forms; assay type: physicochemical; conditions: competitive slurry of Form 1 with Form 2 and Form 3 in acetonitrile at room temperature (20-25° C.) and 75° C.
# Description: Three anhydrous polymorphic forms of telmapitant or (5R,8S)-8-[[(1R)-1-[3,5-bis(trifluoromethyl)phenyl]ethoxy]methyl]-8-phenyl-1,3,7-triazaspiro[4.5]decane-2,4-dione (MK-7035) have been identified during polymorph screening.
SMILES,efficacy against emetogens [1],relative thermodynamic stability of polymorphic forms [2]
COc1ccc(C(C)(C)C)cc1CN[C@H]1C2CCN(CC2)[C@H]1C(c1ccccc1)c1ccccc1 [maropitant],effective,
"C[C@@H](OC[C@@]1(c2ccccc2)CC[C@]2(CN1)NC(=O)NC2=O)c1cc(C(F)(F)F)cc(C(F)(F)F)c1 [Form 1, (5R,8S)-8-[[(1R)-1-[3,5-bis(trifluoromethyl)phenyl]ethoxy]methyl]-8-phenyl-1,3,7-triazaspiro[4.5]decane-2,4-dione]",,thermodynamically more stable than Form 2 and Form 3
